In patent US20070078263A1, “BIARYL SUBSTITUTED HETEROCYCLE INHIBITORS OF LTA4H FOR TREATING INFLAMMATION” (deCODE Chemistry, Inc., priority 2005, published 2007):
Structures can show the parent of a compound that is named as a salt. Where two headings read alike, the source gives them in different places.

Molecular target: T1, human LTA4 hydrolase (Homo sapiens, UniProt P09960)
T1 construct: A human LTA4 hydrolase full-length cDNA clone (NM 000895) was purchased; His tag (6xHis of vector pDEST17); made in house; host or cells: Escherichia coli BL21-AI
T1 sequence (P09960 1-611): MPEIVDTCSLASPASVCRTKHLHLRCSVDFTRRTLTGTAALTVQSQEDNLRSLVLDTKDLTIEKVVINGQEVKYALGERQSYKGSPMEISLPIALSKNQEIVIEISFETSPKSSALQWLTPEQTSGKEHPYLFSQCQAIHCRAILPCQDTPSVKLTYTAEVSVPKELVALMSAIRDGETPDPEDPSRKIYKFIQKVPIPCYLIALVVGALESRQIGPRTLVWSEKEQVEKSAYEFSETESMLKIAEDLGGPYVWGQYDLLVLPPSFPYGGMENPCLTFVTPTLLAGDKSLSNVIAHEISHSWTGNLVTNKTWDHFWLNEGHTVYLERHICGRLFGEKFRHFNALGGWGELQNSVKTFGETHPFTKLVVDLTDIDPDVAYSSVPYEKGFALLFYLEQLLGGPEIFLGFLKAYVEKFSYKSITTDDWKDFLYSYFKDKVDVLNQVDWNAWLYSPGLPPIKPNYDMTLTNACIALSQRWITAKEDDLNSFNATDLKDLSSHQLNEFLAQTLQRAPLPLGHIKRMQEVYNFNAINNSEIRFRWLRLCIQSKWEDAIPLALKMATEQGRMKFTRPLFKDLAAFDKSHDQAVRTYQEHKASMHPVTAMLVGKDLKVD
Assay: In vitro assay testing inhibitory activity against purified recombinant human LTA4 hydrolase (LTB4 formed, LC-MS/MS);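 note: 200 nM enzyme preincubated 10 min at room temperature with serial inhibitor dilutions in pH 8.0 Tris buffer with BSA and 10% DMSO, then 2 µM LTA4 added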
Type: biochemical

[1] = recombinant human LTA4 hydrolase 200 nM, LTA4 2 μM, read-out: AvgIC50

From the text: (1) In vitro assay testing inhibitory activity against purified recombinant human LTA4 hydroase. […] The gene was amplified by polymerase chain reaction and transferred via pDONR201 into the bacterial expression vector pDEST17 by recombination (both plasmids from Invitrogen, Carlsbad, Calif.). The resulting construct was transformed into Escherichia coli BL21-AI (Invitrogen), and expression was induced by chemical induction with arabinose. The recombinant enzyme was purified by chromatography on an FPLC system (Amersham Biosciences, Uppsala, Sweden) using immobilized metal affinity chromatography (Ni-NTA Superflow, Qiagen, Hilden, Germany) and anion exchange chromatography (MonoQ HR 10/10, Amersham Biosciences).
The compounds of the invention were incubated in a series of dilutions with 200 nM of recombinant enzyme in assay buffer (100 mM Tris-HCl, 100 mM NaCl, 5 mg/ml fatty-acid free BSA, 10% DMSO, pH 8.0) for 10 min at room temperature to allow binding between LTA4 hydrolase and the inhibitors. LTA4 was prepared by alkaline hydrolysis of LTA4 methyl ester (Biomol, Plymouth Meeting, Pa., or Cayman Chemicals, Ann Arbor, Mich.). A solution of 10 μg of the ester was dried under a nitrogen stream and redissolved in 60 μl of a solution of 80% acetone and 20% 0.25 M NaOH. After incubation for 40 min at room temperature the resulting approximately 500 μM tock of LTA4 was kept at −80° C. for no more than a few days prior to use.
Immediately before the assay, LTA4 was diluted to a concentration of 10 μM in assay buffer (without DMSO) and added to the reaction mixture to a final concentration of 2 μM to initiate the enzyme reaction. […] The samples were then kept at 4° C. overnight to complete protein precipitation and centrifuged for 15 min at 1800 g.

Row | SMILES | IC50 [1] [µM] | IC50 [µM]
1 | c1ccc(Oc2ccc(OCC3CNCCN3)cc2)cc1 (centres unmarked) [Example 76, dihydrochloride] | < 5 | –
2 | c1cc(-c2ccc(Cc3ccc(OC[C@H]4CCCCN4)cc3)cc2)cs1 [Example 78, (R)-2-[4-(4-Thiophen-3-yl-benzyl)-phenoxymethyl]-piperidine hydrochloride] | < 5 | –
3 | O=C(O)CCCN1CCCC[C@@H]1COc1ccc(Oc2ccc(Cl)cc2)cc1 [Example 81, 4-{(R)-2-[4-(4-Chloro-phenoxy)-phenoxymethyl]-piperidin-1-yl}-butyric acid hydrochloride] | – | < 5
4 | O=C1CC[C@@H](COc2ccc(Cc3ccccc3)cc2)N1 [Example 83, (S) 5-(4-Benzyl-phenoxymethyl)-pyrrolidin-2-one hydrochloride salt] | < 5 | –
5 | O=C1CC[C@H](COc2ccc(Cc3ccccc3)cc2)N1 [Example 84, (R) 5-(4-Benzyl-phenoxymethyl)-pyrrolidin-2-one] | < 5 | –
6 | c1ccc(CO[C@H]2CN[C@H](COc3ccc(Oc4ccccc4)cc3)C2)cc1 [Example 85] | 5 to 20 | –
7 | O[C@H]1CN[C@H](COc2ccc(Oc3ccccc3)cc2)C1 [Example 86, (3R,5S)-5-(4-Phenoxy-phenoxymethyl)-pyrrolidin-3-ol] | < 5 | –
8 | c1ncc(-c2ccc(Oc3ccc(OC[C@@H]4CCCN4)cc3)cc2)o1 [Example 89, 5-{4-[4-((S)-1-Pyrrolidin-2-ylmethoxy)-phenoxy]-phenyl}-oxazole] | < 5 | –
9 | Clc1ccc(COc2ccc(OC[C@H]3CCCN3)cc2)c(Cl)c1 [Example 91, (R)-2-[4-(2,4-Dichloro-benzyloxy)-phenoxymethyl]-pyrrolidine hydrogen chloride salt] | 5 to 20 | –
10 | Fc1ccc(COc2ccc(OC[C@H]3CCCN3)cc2)cc1 [Example 92, (R)-2-[4-(4-Fluoro-benzyloxy)-phenoxymethyl]-pyrrolidine Hydrogen chloride salt] | < 5 | –
11 | Fc1ccc(COc2ccc(OC[C@H]3CCCN3)cc2)cc1F [Example 93, (R)-2-[4-(3,4-Difluoro-benzyloxy)-phenoxymethyl]-pyrrolidine Hydrogen chloride salt] | < 5 | –
12 | Clc1ccc(COc2ccc(OC[C@H]3CCCN3)cc2)cc1 [Example 94, (R)-2-[4-(4-Chloro-benzyloxy)-phenoxymethyl]-pyrrolidine Hydrogen chloride salt] | < 5 | –
13 | FC(F)(F)c1ccc(COc2ccc(OC[C@H]3CCCN3)cc2)cc1 [Example 95, (R)-2-[4-(4-Trifluoromethyl-benzyloxy)-phenoxymethyl]-pyrrolidine Hydrogen chloride salt] | < 5 | –
14 | FC(F)(F)c1cccc(COc2ccc(OC[C@H]3CCCN3)cc2)c1 [Example 96, (R)-2-[4-(3-Trifluoromethyl-benzyloxy)-phenoxymethyl]-pyrrolidine Hydrogen chloride salt] | 5 to 20 | –
15 | COc1cccc(COc2ccc(OC[C@H]3CCCN3)cc2)c1 [Example 97, (R)-2-[4-(3-Methoxy-benzyloxy)-phenoxymethyl]-pyrrolidine Hydrogen chloride salt] | 20 to 100 | –
16 | Clc1cc2c(cc1COc1ccc(OC[C@H]3CCCN3)cc1)OCO2 [Example 98, (R)-2-[4-(6-Chloro-benzo[1,3]dioxol-5-ylmethoxy)phenoxymethyl]pyrrolidine Hydrogen chloride salt] | 20 to 100 | –
17 | Clc1ccc2nc(Oc3ccc(OC[C@H]4CCCN4)cc3)sc2c1 [Example 101, (R)-2-[4-(6-Chloro-benzothiazol-2-yloxy)-phenoxymethyl]-pyrrolidine-Hydrogen chloride salt] | < 5 | –
18 | COc1ccc2nc(Oc3ccc(OC[C@H]4CCCN4)cc3)sc2c1 [Example 102, (R)-2-[4-(6-Methoxy-benzothiazol-2-yloxy)-phenoxymethyl]-pyrrolidine-Hydrogen chloride salt] | < 5 | –
19 | O=C(O)CCCN1CCC[C@@H]1COc1ccc(Cc2ccc(-c3ccco3)cc2)cc1 [Example 114, 4-{(R)-2-[4-(4-furan-2-yl-benzyl)-phenoxymethyl]-pyrrolidin-1-yl}-butyric acid hydrogen chloride salt] | < 5 | –
20 | Cc1ccc(-c2ccc(Cc3ccc(OC[C@H]4CCCN4CCCC(=O)O)cc3)cc2)s1 [Example 115, (R)-2-{4-[4-(5-methyl-thiophen-2-yl)-benzyl]-phenoxymethyl}-pyrrolidin-1-yl}-butyric acid hydrogen chloride salt] | < 5 | –
21 | O=C(O)CCCN1CCC[C@H]1COc1ccc(Cc2ccc(-c3cccs3)cc2)cc1 [Example 118] | < 5 | –
22 | c1cc(-c2ccc(Cc3ccc(OC[C@H]4CCCN4)cc3)cc2)ccn1 [Example 125, 4-{4-[4-((R)-1-Pyrrolidin-2-ylmethoxy)-benzyl]-phenyl}-pyridine hydrogen chloride salt] | 5 to 20 | –
23 | c1cc(Oc2ccc(OC[C@H]3CCCN3)cc2)ccn1 [Example 144, 4-[4-((R)-1-Pyrrolidin-2-ylmethoxy)-phenoxy]-pyridine] | < 5 | –
24 | c1coc(-c2ccc(Oc3ccc(OC[C@H]4CCCN4)cc3)cc2)n1 [Example 148, hydrochloride salt] | < 5 | –

Other lines, results leading:

Row | IC50 [1] [µM] | IC50 [µM] | SMILES
25 | < 5 | – | c1ccc2oc(Oc3ccc(OC[C@H]4CCCN4)cc3)nc2c1 [Example 99, (R)-2-[4-(Benzooxazol-2-yloxy)-phenoxymethyl]-pyrrolidine Hydrogen chloride salt]
26 | < 5 | – | c1ccc2[nH]c(Oc3ccc(OC[C@H]4CCCN4)cc3)nc2c1 [Example 103, 2-[4-((R)-1-Pyrrolidin-2-ylmethoxy)-phenoxy]-1H-benzoimidazole Hydrogen chloride salt]
27 | < 5 | – | O=C(O)CCCN1CCC[C@@H]1COc1ccc(Cc2ccc(-c3ccc(Cl)s3)cc2)cc1 [Example 116, (R)-2-{4-[4-(5-chloro-thiophen-2-yl)-benzyl]-phenoxymethyl}-pyrrolidin-1-yl}-butyric hydrogen chloride salt]
28 | < 5 | – | Ic1ccc(Cc2ccc(OC[C@@H]3CCCN3)cc2)cc1 [Example 121, (S)-2-[4-(4-Iodo-benzyl)-phenoxymethyl]-pyrrolidine]
29 | 5 to 20 | – | c1cc(OC[C@@H]2CCCN2)ccc1Cc1ccc(N2CCC2)cc1 [Example 124, (S)-2-[4-(4-Azetidin-1-yl-benzyl)-phenoxymethyl]-pyrrolidine hydrogen chloride salt]
30 | 5 to 20 | – | c1cncc(-c2ccc(Cc3ccc(OC[C@H]4CCCN4)cc3)cc2)c1 [Example 126, 3-{4-[4-((R)-1-Pyrrolidin-2-ylmethoxy)-benzyl]-phenyl}-pyridine]
31 | 5 to 20 | – | O=C(c1ccc(I)cc1)c1ccc(OC[C@H]2CCCN2)cc1 [Example 127, (4-Iodo-phenyl)-[4-((R)-1-pyrrolidin-2-ylmethoxy)-phenyl]-methanone]
32 | 5 to 20 | – | OC(c1ccc(OC[C@H]2CCCN2)cc1)c1ccc(-c2ccsc2)cc1 (stereo partly drawn) [Example 129, [4-((R)-1-Pyrrolidin-2-ylmethoxy)-phenyl]-(4-thiophen-3-yl-phenyl)-methanol]
33 | 5 to 20 | – | c1csc(-c2ccc(Oc3ccc(OC[C@H]4CCCN4)cc3)cc2)c1 [Example 131, (R)-2-[4-(4-Thiophen-2-yl-phenoxy)-phenoxymethyl]-pyrrolidine-1-hydrogen chloride salt]
34 | 5 to 20 | – | c1ncc(-c2ccc(Oc3ccc(OC[C@H]4CCCN4)cc3)cc2)o1 [Example 132, 5-{4-[4((R)-1-Pyrrolidin-2-ylmethoxy)-phenoxy]-phenyl}-oxazole, hydrogen chloride salt]
35 | < 5 | – | N#CC1(c2ccc(Oc3ccc(OC[C@H]4CCCN4)cc3)cc2)CC1 [Example 136, 1-{4-[4-((R)-1-Pyrrolidin-2-ylmethoxy)-phenoxy]-phenyl}-cyclopropanecarbonitrile hydrogen chloride salt]
36 | < 5 | – | C[C@@H](NC(=O)CCCN1CCC[C@H]1COc1ccc(Oc2ccc(Cl)cc2)cc1)c1ccccc1 [Example 139, 4-{(S)-2-[4-(4-Chloro-phenoxy)-phenoxymethyl]-pyrrolidin-1-yl}-N—[(R)-1-phenylethyl]-butyramide]
37 | < 5 | – | c1ccc(Cc2ccc(OC[C@H]3CCCN3)nc2)cc1 [Example 141, 5-Benzyl-2-((R)-1-pyrrolidin-2-ylmethoxy)-pyridinehydrochloride salt]
38 | < 5 | – | c1ccc(Cc2ccc(OC[C@@H]3CCCN3)nc2)cc1 [Example 142, 5-Benzyl-2-((S)-1-pyrrolidin-2-ylmethoxy)-pyridine hydrochloride salt]
39 | < 5 | – | O=C(O)CCN1CCC[C@@H]1COc1ccc(Oc2ccncc2)cc1 [Example 145, 3-{(R)-2-[4-(Pyridin-4-yloxy)-phenoxymethyl]-pyrrolidin-1-yl}-propionic acid]
40 | < 5 | – | c1csc(-c2ccc(Cc3ccc(OC[C@H]4CCCN4)cc3)cc2)n1 [Example 149, 2-{4-[4-((R)-1-Pyrrolidin-2-ylmethoxy)-benzyl]-phenyl}-thiazole hydrochloride salt]
41 | < 5 | – | c1csc(-c2ccc(Cc3ccc(OC[C@@H]4CCCN4)cc3)cc2)n1 [Example 150, 2-{4-[4-((S)-1-Pyrrolidin-2-ylmethoxy)-benzyl]-phenyl}-thiazole hydrochloride salt]
